Measurements reported in patent publication US12409157B2, “Mitofusin activators and methods of use thereof” (Mitochondria Emotion, Inc., priority 2019, dated 2025).
pEC50: −log10 of the molar value. “Also recorded” adds a separate entry of the source.

Assays:
MFN2 = target: T1, MFN2 (Homo sapiens, UniProt O95140); test: conformational opening of mitofusin 2; format: biochemical; settings: FIG. 6B
T1 sequence (O95140 1-757): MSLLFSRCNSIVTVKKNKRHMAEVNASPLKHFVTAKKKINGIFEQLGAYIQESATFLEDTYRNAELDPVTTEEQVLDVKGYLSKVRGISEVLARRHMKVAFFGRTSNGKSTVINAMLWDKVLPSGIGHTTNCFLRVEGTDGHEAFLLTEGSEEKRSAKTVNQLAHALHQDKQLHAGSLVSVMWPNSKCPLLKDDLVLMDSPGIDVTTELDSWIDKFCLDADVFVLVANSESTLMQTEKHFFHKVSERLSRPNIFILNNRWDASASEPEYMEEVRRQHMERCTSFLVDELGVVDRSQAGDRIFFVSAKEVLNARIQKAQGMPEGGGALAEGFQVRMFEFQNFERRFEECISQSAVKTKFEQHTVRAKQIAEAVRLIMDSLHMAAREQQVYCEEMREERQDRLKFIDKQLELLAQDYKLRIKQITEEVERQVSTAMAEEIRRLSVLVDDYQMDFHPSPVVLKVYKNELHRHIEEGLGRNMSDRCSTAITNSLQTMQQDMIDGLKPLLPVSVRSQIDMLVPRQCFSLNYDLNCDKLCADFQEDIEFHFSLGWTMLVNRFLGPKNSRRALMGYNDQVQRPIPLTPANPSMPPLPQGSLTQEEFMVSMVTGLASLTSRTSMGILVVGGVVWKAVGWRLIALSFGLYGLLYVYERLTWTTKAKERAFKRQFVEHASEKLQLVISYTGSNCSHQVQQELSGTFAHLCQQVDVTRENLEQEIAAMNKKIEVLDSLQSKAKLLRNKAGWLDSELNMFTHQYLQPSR

Plasma stability, human = format: in vitro ADME; settings: H
Plasma stability, mouse = format: in vitro ADME; settings: M
mitofusin [1] = settings: Rocha et al 2018 Science 360:336; read-out: EC50 as mitofusin activator; cited from earlier work
mitofusin [2] = tested on: T2, mitofusin; test: mitofusin-dependent mitochondrial elongation (aspect ratio), functional screening; format: cell-based, mouse; settings: DMSO vehicle, Reg C positive control; FIGS. 2-5
T2 construct: EC50 Mito Elongation; other: benchmark <30; unit given as nm; results of functional screening (mitochondrial elongation); other: DMSO vehicle, Reg C positive control

| Compound | pEC50 (mitofusin [1]) | results of functional screening (mitochondrial elongation) (mitofusin [2]) | further results |
| --- | --- | --- | --- |
| O=C(CCCCCc1ccccc1)NC1CCC(O)CC1 (stereo not shown) [MiM111, N-(4-hydroxycyclohexyl)-6-phenylhexanamide] |  |  | conformational opening of MFN2 (MFN2): induces an open conformation of its target MFN2; also recorded: conformational opening of MFN 2 mimics that of an agonist peptide; Plasma Stability (120 min.) (Plasma stability, human): 87%; Plasma Stability (120 min.) (Plasma stability, mouse): 100% |
| CC(Sc1nnc(C2CC2)n1-c1ccccc1)C(=O)Nc1sc2c(c1C(N)=O)CCC2 (stereo not shown) [compound B, 2-{2-[(5-cyclopropyl-4-phenyl-4H-1,2,4-triazol-3-yl)sulfanyl]propanamido}-4H,5H,6H-cyclopenta[b]thiophene-3-carboxamide] | ~8.00 |  |  |
| CC1CCCCC1NC(=O)NCCSCc1ccccc1 (stereo not shown) [compound A, 1-[2-(benzylsulfanyl)ethyl]-3-(2-methylcyclohexyl)urea] | ~7.52 |  |  |
| CC1CC(O)CCC1NC(=O)NCCCCc1ccccc1 (stereo not shown) [MiM5, 1-(4-Hydroxy-2-methylcyclohexyl)-3-(4-phenylbutyl)urea] |  | highly active |  |
| O=C(CCCCCc1ccccn1)NC1CCC(O)CC1 (stereo not shown) [MiM111 N1, (4-Hydroxycyclohexyl)-6-(pyridin-2-yl)hexanamide] |  | All compounds except MiM111 N1 were highly active |  |
